Measurements reported in publication PMC7819857, “Identification of Inhibitors of Integrin Cytoplasmic Domain Interactions With Syk” (Frontiers in Immunology, 2021).

Tests used:
[1] = test system: Syk phosphorylation in THP-1 cells; experiment: Integrin α4β1-induced phosphorylation of Syk in THP-1 cells plated on CS-1; type: cell-based, human
Method: Compound loading of cells was facilitated by glycerol shock ([32], [33]). Methods were first optimized with the cell-impermeable fluorophore Sulfo-Cy5 (see Supplemental Figure S5 ). For analysis of compound inhibition of integrin signaling, 3 × 10^6 THP-1 cells were incubated in 200 ul serum-free RPMI containing 15% glycerol and ceftazidime (at indicated concentrations) for 1 h at 20°C. RPMI (3 ml, room temperature) containing ceftazidime (at indicated concentrations) was added to the cells to dilute the glycerol, and the cells were further incubated for 10 min (room temperature). Cells were then plated onto CS-1-BSA-coated plates for 15 min at 37°C, lysed in RIPA buffer (1% Triton X-100, 50 mM Tris-HCl pH 7.2, 150 mM NaCl, 0.25% NaDOC, 0.05% SDS, 2 mM PMSF, 1 mM NaF, 1 mM Na3VO4, and protease inhibitor cocktail) (AEBSF, Aprotinin, E-64, Bestatin, Leupeptin and Pepstatin; VWR Cat#97063-010), and the lysates were subjected to Western blot as described below.
(§1) Syk phosphorylation assays were performed by immobilizing vascular cell adhesion molecule-1 (VCAM)-1 (3 ug/ml), CS-1-BSA (10 ug/ml), or specific monoclonal antibodies (anti-FcγRI mAb 276426, anti-α4β1 mAb 19H8, anti-β2 mAb 76C3, anti-αvβ3 mAb LM609 all at 5 ug/ml) overnight at 4°C in Tris-HCl pH 7.5, 150 mM NaCl, in 6-well plates (non-tissue culture treated, Becton Dickenson, cat# BD351146). […] After electrophoresis, proteins were transferred to nitrocellulose for 1 h 100 V room temperature, blocked in 5% non-fat milk in TBS-T, and probed with the indicated primary antibody at 1:1,000 overnight at 4°C, followed by species-appropriate HRP secondary antibody (Southern Biotech) at 1:5,000 (30 min at room temperature), and detected using Pierce West Pico (Thermo Scientific cat# 34580). […]
Figure 4 Ceftazidime inhibition of integrin signaling. (A) Dose-response curves comparing ceftazidime antagonist activity against integrin β1A, β2, and β3 cytoplasmic domains binding to Syk as measured in AlphaScreen assays. […] Data are expressed as mean fluorescence (Fl520) ± the range from duplicate determinations. […]

[2] = test system: Pyk-2 phosphorylation in THP-1 cells; experiment: Integrin α4β1-induced phosphorylation of Pyk-2 in THP-1 cells plated on CS-1; type: cell-based, human; details: 100 µM loaded by glycerol shock
Method: as §1, with “BD351146). Plates were then blocked with BSA (2% w/v) for 1 h at room temperature.” for “BD351146).”
Figure 6 Selective inhibition of integrin signaling by ceftazidime. […] Data are expressed as mean ± range from duplicate determinations. […] Kinase activity is expressed as percent of maximum signal. Data are expressed as mean ± SEM (n = 3). **p < 0.01 (D) Selective effects of ceftazidime on integrin signaling. […] Phosphorylation of Syk (left and right panel) and Pyk-2 (center panel) was analyzed by immunoprecipitation and western blot. […] Results are expressed as the mean ± SEM. […]

CC(C)(O/N=C(\C(=O)N[C@@H]1C(=O)N2C(C(=O)[O-])=C(C[n+]3ccccc3)CS[C@H]12)c1csc(N)n1)C(=O)O [ceftazidime]
integrin α4β1 induced phosphorylation of Syk ([1]; 100 µM loaded by glycerol shock, plated on CS-1, immunoprecipitation and western blot): inhibited
α4β1-induced phosphorylation of Syk (pY352) ([1]; ceftazidime loaded by glycerol shock, indicated doses, cells plated on CS-1): inhibited
α4β1 signaling through Syk ([1]; drug simply added to THP-1 cells, no glycerol loading): negative
integrin α4β1 induced phosphorylation of Pyk-2 [2]: inhibited
